Measured values as given in patent US8614203B2, “Methods for the treatment of a central nervous system injury via a tapered administration protocol” (Emory University, priority 2005, dated 2013).

Columns and labels:
Assay type in all cases: in vivo, Sprague-Dawley rats
[1] = tested on: bilateral contusions of the medial prefrontal cortex; experiment: Example 1: cell counts of Nissl-stained neurons (STR, GP, DMN, VMN) after TBI; settings: 4 mg/kg in peanut oil
Method: Male Sprague-Dawley rats (300 g) were housed individually in wire cages and kept on a reverse light-dark cycle (0800-2000 h). […] All procedures involving animals conformed to guidelines set forth in the Guide for the Care and Use of Laboratory Animals (U.S. Department of Health and Human Services, Pub no. 85-23, 1985) and were approved by the Emory University Institutional Animal Care and Use Committee.
Bilateral contusions of the medial prefrontal cortex were created by a pneumatic impactor device as previously described. Briefly, rats were given anesthetized with ketamine/xylazine (90 mg/kg; 10 mg/kg) and placed in a stereotaxic apparatus. A craniectomy (diameter 6 mm) was made over the midline of the prefrontal cortex with its center 1.5 mm AP to bregma. After removal of the bone, the tip of the impactor (diameter 5 mm) was moved to +3.0 mm AP; 1.0 mm ML (from bregma), and checked for adequate clearance. Trauma was produced by pneumatically activating the piston to impact −2.0 mm DV (from dura) at a velocity of 3 m/s with a brain contact time of 0.5 seconds. […]
Cell counts were done on an Olympus BH-2 microscope equipped with an eyepiece micrometer grid (sample area=40 um^2 at ×400 magnification). […] Only cells with neuronal nuclei and intact membranes were counted as neurons.
Experienced individuals who were blind to treatment conditions of the study conducted all histological and behavioral analyses. All data were tested for normality and homoschedasticity before being analyzed by parametric analysis of variance (ANOVA). MWM results were analyzed using separate mixed-factorial (4 groups×5 days) analysis of variance (ANOVA) on each of the two 5-day testing periods (acquisition and retention respectively). Results of the BSN task were analyzed using the mixed-factorial ANOVA (4 groups×2 post-injury trials). […] Pearson r coefficients were calculated to determine whether significant correlations could be detected between histological (e.g., lesion size and cellular density) and behavioral parameters (e.g., acquisition and retention of the MWM task and measures of sensory neglect).

HSP70 = experiment: Example 4: Western blotting densitometry, HSP70
Text: 60 male Sprague-Dawley rats weighing 290-310 g at the time of injury were used in this experiment. Food and water were provided ad libidum before and after surgery. Animals were handled and weighed daily from their arrival, seven days pre-surgery, to brain extraction three weeks post-surgery. Animals were handled in squads of 12, with n=10 per experimental condition. All animal procedures were approved by the Emory University Animal Care and Use Committee, Protocol #131-2002.
Isofluorane anesthesia was induced for four minutes and 45 seconds at 5% and maintained at 2.5%. Normal body temperature was maintained with a surgical heating pad placed beneath the sterile dressings. The scalp incision area was shaved and sterilized with iodine and isopropanol. A midline incision was made along the scalp and the fascia cleared to expose the surface of the skull. Medial, lateral, and dorsal stereotaxic coordinates were determined at bregma, and a 5-7 mm diameter bilateral craniotomy was performed mid-sagitally, 3 mm anterior to bregma. […] Sutures were used to close the incision after bleeding ceased. Animals were placed in individual heated, clean recovery cages until they awakened, and were returned to clean individual home cages with accessible moistened food pellets. Sham animals were anesthetized, and an incision was made at the top of the head. The fascia was cleared to expose bregma, then the incision was sutured closed. Sham surgeries were matched to lesion surgeries for all experimental conditions.
Sham (S) and lesion (L) animals were randomly assigned to one of three treatment groups: vehicle (VS, VL), acute withdrawal (AWS, AWL), and tapered withdrawal (TWS, TWL). […] Tapering was induced as halved dosages over the last two days of treatment. Dilutions for TW treatments were made with HBC stock. […]
Brains for protein analysis were sectioned into the immediate area of the lesion and snap frozen in 2-methyl-butane chilled on dry ice. […] The amount of brain homogenate needed to standardize samples to 2 μg/μL for Western blotting was calculated from the results of these assays. […]

GFAP = experiment: Example 3: GFAP staining (reactive astrocytes)
Method: Male Sprague-Dawley rats received either medial frontal cortex injury or sham surgery. Injections were given 1 and 6 hours post-injury, and every 24 hours for 7 days. Treatment groups (n=8) encompassed injured (I) and sham (S) acute withdrawal (AW), tapered withdrawal (TW) and vehicle (V) treatments. TW injections were progressively halved over the final two treatments. Behavioral testing was conducted post-surgery, mid- and post-withdrawal. Activity boxes were used to investigate vertical movements and exploration: Sensory neglect and anxiety behaviors were also analyzed. Brain harvesting was performed at 8 days or 3 weeks post-injury. Perfused tissue sections were analyzed for lesion volume and immunohistochemical response. Fresh brain tissue was flash frozen in chilled 2-methyl butane, and then homogenized for Western blot analysis.

Structure (SMILES): CC(=O)[C@H]1CC[C@H]2[C@@H]3CCC4=CC(=O)CC[C@]4(C)[C@H]3CC[C@]12C [progesterone, pregn-4-ene-3,20-dione]
- injury-induced neuronal loss (mean cellular density STR, GP, DMN, VMN) ([1]; 3 days (LP3)): significant reduction of injury-induced neuronal loss in all brain regions examined
- injury-induced neuronal loss (mean cellular density STR, GP, DMN, VMN) ([1]; 5 days (LP5)): significant reduction of injury-induced neuronal loss in all brain regions examined
- neuronal loss in the VMN, 5 days vs 3 days of treatment ([1]; 5 days compared with 3 days): more effective than 3 days at attenuating neuronal loss in the VMN
- HSP70 levels (HSP70; all progesterone treatment vs vehicle-treated animals, three weeks post-injury): increased HSP70 compared to vehicle-treated animals
- HSP70 levels (HSP70; sham animals (AWS, TWS, VS)): Sham animals did not display any differences between treatment groups
- HSP70 levels (HSP70; tapered withdrawal, lesion (TWL) vs VL and AWL, three weeks post-injury): increased in TWL animals
- reactive astrocytes (GFAP staining) (GFAP; acute withdrawal, injured, rank between TWI and VI): followed by AWL
- reactive astrocytes (GFAP staining) (GFAP; tapered withdrawal, injured (TWI)): fewest reactive astrocytes
